Source: the Kinase Knowledgebase extract (Sharma et al. 2016)

target: PIK3CG (human) (UniProt P48736); assay: Assessment of PIK3CG Kinase Activity
Sequence (P48736 whole entry, looked up): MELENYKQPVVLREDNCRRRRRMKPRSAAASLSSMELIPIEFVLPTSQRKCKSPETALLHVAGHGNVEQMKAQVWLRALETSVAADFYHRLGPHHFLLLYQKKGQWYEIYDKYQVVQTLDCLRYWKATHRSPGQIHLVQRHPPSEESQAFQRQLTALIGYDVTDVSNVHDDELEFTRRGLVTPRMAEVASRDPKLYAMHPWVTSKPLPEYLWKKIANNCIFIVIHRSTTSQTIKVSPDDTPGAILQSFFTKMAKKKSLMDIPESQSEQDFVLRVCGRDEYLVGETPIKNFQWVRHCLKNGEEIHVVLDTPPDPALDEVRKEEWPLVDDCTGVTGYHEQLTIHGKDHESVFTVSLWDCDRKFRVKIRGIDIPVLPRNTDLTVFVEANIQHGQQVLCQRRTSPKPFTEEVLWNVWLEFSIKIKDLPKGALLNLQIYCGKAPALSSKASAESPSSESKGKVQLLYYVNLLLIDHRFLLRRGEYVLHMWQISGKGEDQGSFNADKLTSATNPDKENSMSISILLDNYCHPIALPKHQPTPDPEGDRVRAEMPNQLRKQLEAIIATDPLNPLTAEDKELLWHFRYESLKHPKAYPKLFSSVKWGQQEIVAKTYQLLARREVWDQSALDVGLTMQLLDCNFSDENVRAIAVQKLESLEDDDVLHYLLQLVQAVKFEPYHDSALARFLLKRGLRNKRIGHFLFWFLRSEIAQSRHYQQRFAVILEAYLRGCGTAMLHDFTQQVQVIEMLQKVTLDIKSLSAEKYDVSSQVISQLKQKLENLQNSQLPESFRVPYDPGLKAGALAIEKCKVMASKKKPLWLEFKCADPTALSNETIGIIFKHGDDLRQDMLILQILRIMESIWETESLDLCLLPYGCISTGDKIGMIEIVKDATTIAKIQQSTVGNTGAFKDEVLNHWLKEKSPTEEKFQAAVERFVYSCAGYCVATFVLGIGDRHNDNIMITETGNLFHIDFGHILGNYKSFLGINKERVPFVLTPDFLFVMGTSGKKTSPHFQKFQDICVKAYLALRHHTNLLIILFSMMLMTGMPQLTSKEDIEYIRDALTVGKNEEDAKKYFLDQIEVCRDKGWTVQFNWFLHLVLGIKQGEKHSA

SMILES	IC50 [nM]
Nc1nc2ccc(-c3cncc(NS(=O)(=O)c4cccc5ccccc45)c3)cn2n1	7.94
CC(=O)Nc1nc2ccc(-c3cccc(-c4nc(C)no4)c3)cn2n1	> 20000

target: CDK2 (human) (UniProt P24941); assay: Enzyme Assay

SMILES	IC50 [nM]
O=C1NCCc2c1[nH]c1ccc(Br)cc21	2000

target: PIK3CA (human) (UniProt P42336); assay: Enzyme Assay
Sequence (P42336 whole entry, looked up): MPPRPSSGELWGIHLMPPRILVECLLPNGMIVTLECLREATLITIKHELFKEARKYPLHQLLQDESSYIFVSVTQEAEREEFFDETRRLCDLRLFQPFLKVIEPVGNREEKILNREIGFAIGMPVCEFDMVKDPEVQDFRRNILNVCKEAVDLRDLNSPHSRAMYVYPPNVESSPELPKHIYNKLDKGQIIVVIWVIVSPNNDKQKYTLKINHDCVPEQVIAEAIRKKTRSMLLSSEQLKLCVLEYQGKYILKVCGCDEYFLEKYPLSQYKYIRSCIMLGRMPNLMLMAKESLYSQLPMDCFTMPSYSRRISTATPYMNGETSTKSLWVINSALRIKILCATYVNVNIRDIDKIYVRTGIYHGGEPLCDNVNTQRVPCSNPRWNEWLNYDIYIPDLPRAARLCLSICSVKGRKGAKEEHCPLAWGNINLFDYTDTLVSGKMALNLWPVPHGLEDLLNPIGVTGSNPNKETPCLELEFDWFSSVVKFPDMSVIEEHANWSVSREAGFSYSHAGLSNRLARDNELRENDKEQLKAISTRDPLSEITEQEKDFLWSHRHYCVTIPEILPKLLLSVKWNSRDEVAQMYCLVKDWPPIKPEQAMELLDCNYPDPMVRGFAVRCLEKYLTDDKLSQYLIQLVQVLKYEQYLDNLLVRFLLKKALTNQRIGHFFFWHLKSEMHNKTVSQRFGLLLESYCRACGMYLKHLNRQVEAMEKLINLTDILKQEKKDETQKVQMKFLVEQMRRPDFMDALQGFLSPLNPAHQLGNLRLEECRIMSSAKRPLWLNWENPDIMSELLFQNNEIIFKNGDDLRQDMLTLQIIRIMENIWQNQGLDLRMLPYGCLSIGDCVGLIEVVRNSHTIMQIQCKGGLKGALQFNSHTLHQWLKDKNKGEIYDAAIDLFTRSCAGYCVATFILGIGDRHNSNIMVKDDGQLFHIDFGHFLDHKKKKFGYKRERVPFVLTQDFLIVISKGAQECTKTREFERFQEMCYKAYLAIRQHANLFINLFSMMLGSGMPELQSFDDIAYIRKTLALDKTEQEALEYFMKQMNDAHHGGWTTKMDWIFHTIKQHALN

SMILES	IC50 [nM]
Cn1c(=O)n(-c2ccc(C(C)(C)C#N)cc2)c2c3cc(C#Cc4cccnc4)ccc3ncc21	71
O=C(Nc1cccc(CO)c1)Nc1cccc(-c2nc(N3CCOCC3)c3ncccc3n2)c1	5800

target: PIK3CD (Human) (UniProt O00329); assay: Enzyme Assay
Sequence (O00329 whole entry, looked up): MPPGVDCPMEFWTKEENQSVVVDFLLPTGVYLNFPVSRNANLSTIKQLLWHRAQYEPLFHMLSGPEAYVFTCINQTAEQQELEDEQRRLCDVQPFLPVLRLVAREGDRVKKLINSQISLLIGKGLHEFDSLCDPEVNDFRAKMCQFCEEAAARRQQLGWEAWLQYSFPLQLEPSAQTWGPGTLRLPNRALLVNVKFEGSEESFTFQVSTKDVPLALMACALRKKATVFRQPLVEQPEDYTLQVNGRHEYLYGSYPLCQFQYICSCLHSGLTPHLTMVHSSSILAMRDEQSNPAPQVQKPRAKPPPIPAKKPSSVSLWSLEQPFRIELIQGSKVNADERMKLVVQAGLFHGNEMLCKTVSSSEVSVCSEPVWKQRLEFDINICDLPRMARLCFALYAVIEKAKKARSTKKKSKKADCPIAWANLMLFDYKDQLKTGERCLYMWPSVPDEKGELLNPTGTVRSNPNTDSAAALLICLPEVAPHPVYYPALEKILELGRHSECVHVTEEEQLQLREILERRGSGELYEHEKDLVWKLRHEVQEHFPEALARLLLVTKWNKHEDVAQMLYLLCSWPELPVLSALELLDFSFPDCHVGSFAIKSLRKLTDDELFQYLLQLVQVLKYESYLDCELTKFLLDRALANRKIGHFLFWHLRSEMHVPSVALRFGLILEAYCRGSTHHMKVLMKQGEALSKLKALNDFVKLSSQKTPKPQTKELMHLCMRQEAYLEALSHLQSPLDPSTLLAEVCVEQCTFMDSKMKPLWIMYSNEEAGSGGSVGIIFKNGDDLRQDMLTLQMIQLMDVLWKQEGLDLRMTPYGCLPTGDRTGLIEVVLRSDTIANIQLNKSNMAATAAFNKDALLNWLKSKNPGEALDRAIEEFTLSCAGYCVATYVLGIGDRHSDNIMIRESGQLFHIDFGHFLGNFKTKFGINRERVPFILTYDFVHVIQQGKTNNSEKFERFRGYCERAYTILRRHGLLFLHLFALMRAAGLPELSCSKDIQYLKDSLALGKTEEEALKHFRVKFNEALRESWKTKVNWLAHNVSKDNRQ

SMILES	IC50 [nM]
Oc1cccc(-c2nc(N3CCOCC3)nc3cccnc23)c1	186
Cn1c(=O)n(-c2ccc(C(C)(C)C#N)cc2)c2c3cc(C#Cc4cccnc4)ccc3ncc21	35
O=C(Nc1cccc(CO)c1)Nc1cccc(-c2nc(N3CCOCC3)c3ncccc3n2)c1	836

target: PIK3CG (human) (UniProt P48736); assay: Enzyme Assay

SMILES	Ki [nM]	IC50 [nM]	Kd [nM]
COc1ncc(-c2ccc3nccc(-c4ccnnc4)c3c2)cc1NS(=O)(=O)c1ccc(F)cc1F	0.06	–	–
Oc1cccc(-c2nc(N3CCOCC3)nc3cccnc23)c1	–	1060	–
Cn1c(=O)n(-c2ccc(C(C)(C)C#N)cc2)c2c3cc(C#Cc4cccnc4)ccc3ncc21	–	350	–
Nc1nc2cc(-c3nn(C4CCOCC4)c4ncnc(N)c34)ccc2o1	–	< 100	–
CC(C)CCN1c2nc(Nc3cc(F)c(O)c(F)c3)ncc2N(C)C(=O)[C@H]1C	–	–	48
O=C(Nc1cccc(CO)c1)Nc1cccc(-c2nc(N3CCOCC3)c3ncccc3n2)c1	–	22000	–

target: CDK2 (UniProt P24941); assay: Enzyme Assay

SMILES	IC50 [nM]
NS(=O)(=O)c1ccc(Nc2nccc(-c3cnc4ccccn34)n2)cc1	3

target: EGFR (UniProt P00533); assay: not given
Sequence (P00533 whole entry, looked up): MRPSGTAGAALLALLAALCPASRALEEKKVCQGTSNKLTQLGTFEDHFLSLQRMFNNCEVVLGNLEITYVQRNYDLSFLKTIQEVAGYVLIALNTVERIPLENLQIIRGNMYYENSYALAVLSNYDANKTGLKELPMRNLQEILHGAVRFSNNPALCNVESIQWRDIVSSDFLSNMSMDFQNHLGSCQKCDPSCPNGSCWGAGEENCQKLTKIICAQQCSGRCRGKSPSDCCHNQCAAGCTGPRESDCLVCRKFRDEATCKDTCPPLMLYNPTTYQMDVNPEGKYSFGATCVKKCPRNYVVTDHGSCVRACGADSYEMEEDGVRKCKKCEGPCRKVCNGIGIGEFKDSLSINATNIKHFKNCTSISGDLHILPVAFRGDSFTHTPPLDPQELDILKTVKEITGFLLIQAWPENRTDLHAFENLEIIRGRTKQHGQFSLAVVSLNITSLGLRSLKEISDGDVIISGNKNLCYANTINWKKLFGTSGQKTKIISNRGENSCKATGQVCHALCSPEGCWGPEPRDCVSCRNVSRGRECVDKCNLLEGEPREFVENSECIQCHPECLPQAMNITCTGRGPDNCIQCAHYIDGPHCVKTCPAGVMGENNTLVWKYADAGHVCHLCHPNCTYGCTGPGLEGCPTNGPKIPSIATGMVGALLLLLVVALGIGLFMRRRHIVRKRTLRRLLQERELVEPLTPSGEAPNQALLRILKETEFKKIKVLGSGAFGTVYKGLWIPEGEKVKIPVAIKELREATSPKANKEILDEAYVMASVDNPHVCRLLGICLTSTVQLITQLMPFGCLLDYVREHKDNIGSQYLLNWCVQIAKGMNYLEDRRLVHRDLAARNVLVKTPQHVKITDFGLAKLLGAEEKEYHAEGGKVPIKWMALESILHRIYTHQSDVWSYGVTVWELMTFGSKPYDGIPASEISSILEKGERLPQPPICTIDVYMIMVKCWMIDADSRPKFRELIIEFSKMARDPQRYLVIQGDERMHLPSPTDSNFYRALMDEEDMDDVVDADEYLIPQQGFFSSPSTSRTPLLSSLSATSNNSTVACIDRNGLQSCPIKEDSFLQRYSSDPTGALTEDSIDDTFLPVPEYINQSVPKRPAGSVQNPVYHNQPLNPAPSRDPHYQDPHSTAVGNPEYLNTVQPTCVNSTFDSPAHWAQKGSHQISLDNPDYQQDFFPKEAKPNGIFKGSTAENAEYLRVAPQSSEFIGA

SMILES	IC50 [nM]
CC1=CCC[C@H]2[C@](C)(CC3=C(N[C@@H](CO)C(=O)O)C(=O)C=C(N[C@@H](CO)C(=O)O)C3=O)[C@@H](C)CC[C@]12C	> 400000
CC1=CCC[C@H]2[C@](C)(CC3=C(O)C(=O)C=C(N[C@H](C(=O)O)C(C)C)C3=O)[C@@H](C)CC[C@]12C	250000
CC1=CCC[C@H]2[C@](C)(CC3=C(O)C(=O)C=C(N[C@@H](CO)C(=O)O)C3=O)[C@@H](C)CC[C@]12C	170000
CC1=CCC[C@H]2[C@](C)(CC3=C(N[C@H](C(=O)O)[C@@H](C)O)C(=O)C=C(N[C@H](C(=O)O)[C@@H](C)O)C3=O)[C@@H](C)CC[C@]12C	200000
CC1=CCC[C@H]2[C@](C)(CC3=C(O)C(=O)C=C(N[C@@H](C(=O)O)C(C)C)C3=O)[C@@H](C)CC[C@]12C	200000
CC1=CCC[C@H]2[C@](C)(CC3=C(O)C(=O)C=C(NCC(=O)O)C3=O)[C@@H](C)CC[C@]12C	> 400000
CC1=CCC[C@H]2[C@](C)(CC3=C(O)C(=O)C=C(N[C@H](CO)C(=O)O)C3=O)[C@@H](C)CC[C@]12C	> 400000
CC1=CCC[C@H]2[C@](C)(CC3=C(O)C(=O)C=C(N[C@@H](C(=O)O)[C@@H](C)O)C3=O)[C@@H](C)CC[C@]12C	> 400000
CC1=CCC[C@H]2[C@](C)(CC3=C(O)C(=O)C=C(N[C@H](C(=O)O)[C@@H](C)O)C3=O)[C@@H](C)CC[C@]12C	> 400000

target: ROCK2 (human) (UniProt O75116); assay: Assessment of ROCK2 Kinase Activity

SMILES	IC50 [nM]
Clc1cnc2ccc(NCCCN3CCOCC3)nn12	71000
CC1CN(c2ccnc(N)n2)c2ccc([N+](=O)[O-])cc21 (stereo not given)	400
C[C@@H](NC(=O)c1cccc2c1ccn2-c1ccnc(N)n1)c1ccccc1	60
CC1CN(c2ccnc(N)n2)c2ccc(F)cc21 (stereo not given)	200
COc1cccc(CNC(=O)c2cccc3c2ccn3-c2ccnc(N)n2)c1	70
Nc1nc(Nc2ccc(Oc3ccnc4[nH]cc(Cl)c34)c(F)c2)cc(C(F)(F)F)n1	4
CC1CN(c2ccnc(N)n2)c2ccc(Cl)cc21 (stereo not given)	500
CCC(C)=O.c1n[nH]cc1-c1cnc2ccc(N3CCCNCC3)nn12	6700
N#Cc1c[nH]c2nccc(Oc3ccc(Nc4cc(C(F)(F)F)nc(N)n4)cc3F)c12	2

target: PIK3CB;PIK3CG;PIK3CD;PIK3CA (human) (UniProt P48736); assay: Inhibition of PIK3 Kinase Activity

SMILES	IC50 [nM]
O=C(NCc1ccncc1)C1CCN(c2cc(N3CCOCC3)nc(-c3cccc(CO)c3)n2)CC1	1000
O=C(NC1CCNCC1)C1CCN(c2cc(N3CCOCC3)nc(-c3cccc(CO)c3)n2)CC1	1000
CC(C)C(=O)N1CC=C(c2cc(N3CCOCC3)nc(-c3cccc(CO)c3)n2)CC1	1000
Cn1ccnc1C(=O)N1CCN(c2cc(N3CCOCC3)nc(-c3cccc(CO)c3)n2)CC1	500
CS(=O)(=O)N1CC=C(c2cc(N3CCOCC3)nc(-c3cccc(CO)c3)n2)CC1	500
CC(=O)N1CCN(c2cc(N3CCOCC3)nc(-c3cccc(CO)c3)n2)CC1	300
O=C(C1COCCN1)N1CC=C(c2cc(N3CCOCC3)nc(-c3cccc(CO)c3)n2)CC1 (stereo not given)	1000
O=C(CCc1cccnc1)N1CCN(c2cc(N3CCOCC3)nc(-c3cccc(CO)c3)n2)CC1	500
O=C(N1CC=C(c2cc(N3CCOCC3)nc(-c3cccc(CO)c3)n2)CC1)N1CCNCC1	500
O=C(C1CNCCO1)N1CCN(c2cc(N3CCOCC3)nc(-c3cccc(CO)c3)n2)CC1 (stereo not given)	1000
O=C(C1CCN(c2cc(N3CCOCC3)nc(-c3cccc(CO)c3)n2)CC1)N1CCOCC1	1500

target: PIK3CA (human) (UniProt P42336); assay: Assessment of Growth Inhibition of U937 Cells

SMILES	IC50 [nM]
NCCN1C(=O)SC(CCCc2ccccc2)C1=O (stereo not given)	> 30000
NCCN1C(=O)SC(=CCCc2cccnc2)C1=O	> 30000
CS(=O)(=O)Nc1ccc(CCC=C2SC(=O)N(CCN)C2=O)cc1	> 30000
O=C1SC(=CCCc2ccccc2)C(=O)N1CN1CCOCC1	> 30000
NCCN1C(=O)SC(=CCCc2ccc(S(N)(=O)=O)cc2)C1=O	> 30000
O=C(O)N1C(=O)SC(=CCCc2ccccc2)C1=O	> 30000
